Earlier results in US20250339390A1 (priority 2018, published 2025).

O=NN(CCCl)C(=O)NCCCl [Carmustine, 1,3-bis(2-chloroethyl)-1-nitrosourea]
solubility in water: poorly soluble
